Experiments:
TetR [1] = target: T1, TetR (Escherichia coli, UniProt P04483); assay: TetR regulated in vitro transcription of 3WJdB, derepression by ligand; format: biochemical; conditions: 200 pmol of antibiotic, T7 RNAP, FIG. 7
T1 construct: 6xHis; made in house; host or cells: E. coli Rosetta 2(DE3)pLysS
Description: The family of tetracycline antibiotics are known ligands of the TetR repressor—they can induce an allosteric conformational change in TetR that results in a lowered affinity for the DNA operator sequence. Importantly, TetR repression of in vitro transcription is relieved if a cognate ligand is included immediately prior to measurement and coincident with the addition of T7 RNAP. […] This included anhydrotetracyline, tetracycline, oxytetracycline, chlortetracycline, and doxycycline. […] The 2 BP spacer (“GG”) promotes efficient transcription initiation with T7 RNAP.
Finally, to validate that the TetR regulated in vitro transcription reactions were specifically responsive to tetracycline antibiotics and that fluorescence was not due to nonspecific activity, we tested the TetR regulated in vitro transcription reaction of the 3WJdB output against macrolide antibiotics (FIG. 10A) as well as other common antibiotics used in biological research (FIG. 10B). None of the non-tetracycline antibiotics tested here is known to induce a conformational change in TetR. In all cases, strong repression of transcription was observed over the course of 2 hours except when tested against the positive control (anhydrotetracyline), or in the absence of the repressor (the unregulated reaction).

TetR [2] = target: T1, TetR; assay: TetR regulated in vitro transcription of 3WJdB with T3 or SP6 RNAP; format: biochemical; conditions: unoptimized
Description: RIViTS are modular with respect to RNA polymerase. T7 RNA polymerase is a single-subunit RNA polymerase from the T7 bacteriophage. It is closely related to the T3 and SP6 bacteriophages and their RNA polymerases are homologous. We reasoned that we could swap the T7-specific promoter from the TetR regulated in vitro transcription of 3WJdB for an SP6 or T3-specific promoter, and maintain the ability to repress and induce transcription by using the appropriate RNAP. […] We suspect that further optimization of the transcription reaction conditions (e.g. buffer composition) will substantially improve the fold-change between the repressed and derepressed states.

TetR [3] = target: T1, TetR; assay: TetR regulated in vitro transcription of strand-invading RNA (InvadeR), DNA output gate; format: biochemical; conditions: FIG. 9
Description: We next transcribed a strand-invading RNA (“InvadeR”) to illustrate that an alternative RNA output can also be visualized in real-time. The InvadeR system works through toehold-mediated strand displacement of a DNA output gate. The DNA output gate consists of 2 annealed and complementary strands (“reporter” and “quencher,” boxed in FIG. 3A). The reporter strand consists of 24 nucleotides and a 3′ fluorophore, while the quencher strand contains 16 complementary nucleotides and a 5′ quencher. When annealed, the two strands leave an 8-nucleotide single-stranded “toehold” region on the 5′ end of the reporter strand. Spatial proximity of the 3′ fluorophore and 5′ quencher results in fluorescence quenching (the “OFF” state). For the InvadeR system described here, we utilized a 3′ terminal single isomer derivative of fluorescein (6-FAM) and a quencher strand with a 5′ terminal Iowa Black FQ quencher. […]
Upon transcription of the InvadeR sequence, which contains 24 nucleotides of perfect complementarity to the reporter strand, the RNA product hybridizes to the single-stranded toehold region of the DNA output gate. This initiates a strand invasion reaction that eventually displaces the quencher strand and alleviates fluorescence quenching (the “ON” state). […]

CsoR = target: T2, CsoR (Bacillus subtilis, UniProt O32222); assay: CsoR regulated in vitro transcription of 3WJdB (copper sensor); format: biochemical; conditions: for reactivity of the copper sensor against metals: FIG. 25A
T2 construct: 6xHis; made in house; host or cells: E. coli Rosetta 2(DE3)pLysS
T2 sequence (O32222 1-101): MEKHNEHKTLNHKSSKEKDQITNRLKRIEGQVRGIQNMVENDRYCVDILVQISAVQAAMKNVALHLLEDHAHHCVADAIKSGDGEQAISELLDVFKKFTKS
Description: (§1) Next, we sought to tune the sensitivity of the copper sensor to meet the EPA regulated limit of copper in drinking water (1.3 ppm). Without any tuning, the sensor detects 0.3 ppm of copper and above (FIG. 26a). To desensitize the sensor to respond near the EPA regulated limit of copper, we reasoned that excess CsoR could be added to the reactions to act as a copper chelator. […] To further implement this strategy of tuning the amount of transcription factors to shift the sensitivity of a sensor, we determined if the lead sensor can be sensitized by decreasing the amount of CadC dimer. When the concentration was decreased from 1.5 μM to 0.5 μM of CadC, we were able to shift the dose response curve to be more sensitive in order to detect tens of ppb of lead (FIG. 26b).

MphR = MphR regulated in vitro transcription of 3WJdB; format: biochemical; conditions: FIG. 24
Description: Similarly, we tested the orthogonality of the TetR, OtrR, CtcS, and MphR with their respective ligands (FIG. 17). In the absence of the ligands or inducers, there was a strong repression of transcription by the ATFs as expected. Only the tetracycline antibiotics tested were able to cause an allosteric conformational change in TetR, OtrR, and CtcS and restore fluorescence signal equivalent to micromolar amounts of soluble FITC, confirming the results presented in FIG. 10A. Similarly, MphR was responsive to macrolide antibiotics, but not to any tetracycline antibiotics tested.

CadC = target: T3, CadC (Staphylococcus aureus, UniProt P20047); assay: CadC regulated in vitro transcription of 3WJdB (lead sensor); format: biochemical; conditions: CadC dimer decreased from 1.5 μM to 0.5 μM, FIG. 26b
T3 construct: 6xHis; made in house; host or cells: E. coli Rosetta 2(DE3)pLysS
T3 sequence (P20047 whole entry): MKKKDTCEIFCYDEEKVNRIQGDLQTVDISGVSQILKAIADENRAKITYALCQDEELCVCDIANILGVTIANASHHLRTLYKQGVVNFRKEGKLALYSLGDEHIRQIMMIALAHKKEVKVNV
Description: as §1

SAR2349 = SAR2349 (Staphylococcus aureus, UniProt Q6GEG9); conditions: FIG. 24
Chain of SAR2349 (Q6GEG9 whole entry): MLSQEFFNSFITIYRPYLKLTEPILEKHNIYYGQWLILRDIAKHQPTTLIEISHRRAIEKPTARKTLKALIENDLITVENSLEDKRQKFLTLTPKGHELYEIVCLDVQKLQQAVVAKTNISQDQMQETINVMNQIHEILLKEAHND
Description: In Vitro Transcription. DFHBI-1T was purchased from either Lucerna or Tocris Bioscience and resuspended in DMSO at 40 mM. 45 nmol of DFHBI-1T was used in each transcription reaction involving the 3WJdB aptamer. Data from FIG. 1 was generated using a HiScribe T7 Quick High Yield RNA Synthesis Kit from New England BioLabs following the manufacturer's protocol and using 1 μg of template DNA (˜5.2 pmol). All other T7 RNA polymerase transcriptions contained T7 transcription buffer (40 mM Tris-HCl pH 8.0, 20 mM NaCl, 10 mM DTT, 8 mM MgCl2, 2 mM spermidine), 8 mM NTPs, and 2 μL T7 RNA polymerase. Amount of template, inducer, and transcription factor are noted below each figure. T3 and SP6 RNA polymerase were purchased from New England BioLabs, and transcriptions using those polymerases were performed according to the manufacturers protocol. All transcriptions were performed at 37° C. and polymerase was added immediately before measurement.
Reactions were monitored in real time by measuring on a BioTek Synergy H1 plate reader set to incubate at 37° C. For the 3WJdB output, an excitation wavelength of 472 nm and emission wavelength of 507 nm was used with measurements every 3 minutes. For the InvadeR system, excitation and emission wavelengths were set at 495 nm and 520 nm respectively and measurements were taken every minute.

AdcR = target: T4, AdcR (Streptococcus pneumoniae serotype 2, UniProt Q04I02); assay: adcO-regulated KB2 kleptamer circuit with AdcR; format: biochemical; conditions: unregulated 3WJdB template and adcO regulated KB2 template, FIG. 23
T4 construct: Giedroc Lab (Indiana University Bloomington), gift
T4 sequence (Q04I02 whole entry): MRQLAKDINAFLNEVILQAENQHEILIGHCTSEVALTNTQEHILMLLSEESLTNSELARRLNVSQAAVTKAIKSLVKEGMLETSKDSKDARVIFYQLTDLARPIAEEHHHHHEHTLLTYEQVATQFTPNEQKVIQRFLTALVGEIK
Description: ATF ligand-mediated transcriptional repression can be inverted to ligand-mediated activation with RNA genetic circuitry. We next tested the kleptamer system with an ATF that is known to bind to its operator site in the presence of its cognate ligand and therefore cause ligand-mediated repression. AdcR is a MarR-family ATF and known to regulate genes encoding a high-affinity ABC uptake system for zinc and cell-surface zinc-binding pneumococcal histidine triad proteins.^36 Unlike the ATFs we tested previously, apo-AdcR is unbound to its operator site. Upon binding Zn(II), AdcR undergoes a conformational change that results in binding to the operator site. We placed an operator site recognized by AdcR (adcO) upstream of the KB2 kleptamer so that when zinc is present, the transcription of the KB2 kleptamer is repressed by the AdcR-zinc complex and the fluorescence-activating 3WJdB aptamer is produced.

T1 sequence (P04483 whole entry): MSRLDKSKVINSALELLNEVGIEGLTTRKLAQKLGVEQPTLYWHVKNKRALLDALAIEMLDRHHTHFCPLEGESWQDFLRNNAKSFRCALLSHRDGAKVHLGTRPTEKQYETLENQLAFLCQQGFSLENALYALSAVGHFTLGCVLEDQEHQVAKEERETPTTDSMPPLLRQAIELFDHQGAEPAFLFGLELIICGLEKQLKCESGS

For `Cc1c2c(c(O)c3c(O)cccc13)C(=O)[C@]1(O)C(=O)C(C(N)=O)=C(O)[C@@H](N(C)C)[C@@H]1C2` [anhydrotetracycline], the “relief of TetR repression, aptamer-activated fluorescence” value (TetR [1]) was “restored aptamer-activated fluorescence close to or exceeding the level of fluorescence observed”, the “relief of TetR repression” value (TetR [2]; SP6 RNAP, FIG. 11B) was “repression is partially relieved” and the “relief of TetR repression” value (TetR [2]; T3 RNAP, FIG. 11A) was “repression is partially relieved”. For the same compound, the “derepression/induction of TetR-repressed InvadeR system” value (TetR [3]) was “derepression/induction”.

With `[Cu+2]` [copper] the “sensitivity of the sensor” value (CsoR; CsoR tetramer increased to 7.5 μM, FIG. 26a) was 1 ppm, the “signal across ligand families” value (CsoR; FIG. 24) was “strong signals from cognate ligands with minimal crosstalk” and the “reactivity of the copper sensor against metals” value (CsoR) was “can respond to copper as well as zinc”. The “concentration detected by the sensor” value (CsoR; without any tuning, CsoR tetramer 2.5 μM, FIG. 26a) was ≥ 0.3 ppm.

`CC[C@H]1OC(=O)[C@H](C)[C@@H](O[C@H]2C[C@@](C)(OC)[C@@H](O)[C@H](C)O2)[C@H](C)[C@@H](O[C@@H]2O[C@H](C)C[C@H](N(C)C)[C@H]2O)[C@](C)(O)C[C@@H](C)C(=O)[C@H](C)[C@@H](O)[C@]1(C)O` [erythromycin] was tested, and the “signal across ligand families” value (MphR) was “strong signals from cognate ligands with minimal crosstalk”.

For `[Pb+2]` [lead], the “concentration detected by the sensor” value (CadC) was “tens of ppb”.

With `O=C(O)c1ccccc1O` [salicylate] the “signal across ligand families” value (SAR2349) was “strong signals from cognate ligands with minimal crosstalk”.

For `[Zn+2]` [zinc], the “fluorescence-activation on titration of ligand” value (AdcR) was “increased fluorescence-activation” and the “reactivity of the copper sensor against metals” value (CsoR) was “can respond to copper as well as zinc”.
